Literature values in US20160215053A1, “CXCL12 (CHEMOKINE (C-X-C MOTIF) LIGAND 12) AND IGFBP2 INHIBITORS FOR THE APPLICATION IN THE TREATMENT OF DIABETES MELLITUS ASSOCIATED PANCREATIC CANCER” (priority 2013, published 2016).
Entries after “also recorded” stand apart in the source; their conditions may differ. Where two headings read alike, the source gives them in different places. Where no end group is shown, it is not given here.

Assays:
[1] = system: PSC; conditions: literature references 19-31
[2] = system: BxPC3 cells; conditions: reference 40

In the case of “Galektin-1: factor that induces PSC activation/trans-differentiation”, the “Effect on PSC” value [1] is given as “increased proliferation”.

For `Nc1ccn([C@@H]2O[C@H](CO)[C@@H](O)C2(F)F)c(=O)n1` [gemcitabine], the “Proportion of cancer cells undergoing gemcitabine induced apoptosis” value ([2]; BxPC3 cells treated with hPSC-CM) is given as 9.4% and the “Proportion of cancer cells undergoing gemcitabine induced apoptosis” value ([2]; BxPC3 cells, without hPSC-CM treatment) is given as 38.9%.

In the case of `CCO` [Ethanol], the “Effect on PSC” value [1] is listed as “type-1 collagen production; also recorded: increased αSMA expression”.

In the case of “gasztrin: factor that induces PSC activation/trans-differentiation (QGPWLEEEEEAYGWMDF; ends and bridges not checked; UniProt P01350 76-92, looked up)”, the “Effect on PSC” value ([1]; cell proliferation) is given as “decreased proliferation” and the “Effect on PSC” value ([1]; collagen synthesis) is given as “increased collagen synthesis,”.

For TNFα, the “Effect on PSC” value [1] is given as “increased αSMA expression”.

In the case of `CCCCC[C@H](O)/C=C/[C@H]1[C@H](O)CC(=O)[C@@H]1C/C=C\CCCC(=O)O` [Prosztaglandin E2], the “Effect on PSC” value [1] is given as “increased proliferation, migration”.

In the case of “TGFα: factor that induces PSC activation/trans-differentiation”, the “Effect on PSC” value [1] is given as “increased proliferation, migration”.

For `CC=O` [Acetaldehide], the “Effect on PSC” value [1] is given as “increased αSMA expression”.

For PDGF, the “Effect on PSC” value ([1]; cell proliferation) is listed as “increased proliferation” and the “Effect on PSC” value ([1]; fibronectin synthesis) is listed as “increased FN synthesis”.

For “bFGF: factor that induces PSC activation/trans-differentiation”, the “Effect on PSC” value [1] is listed as “increased proliferation”.

B1: Activin A: factor that induces PSC activation/trans-differentiation (protein, UniProt P08476 311-426, looked up)
Inhibin beta A chain: GLECDGKVNICCKKQFFVSFKDIGWNDWIIAPSGYHANYCEGECPSHIAGTSGSSLSFHSTVINHYRMRGHSPFANLKSCCVPTKLRPMSMLYYDDGQNIIKKDIQNMIVEECGCS
modifications: Inhibin beta A chain
For B1, the “Effect on PSC” value [1] is given as “increased αSMA expression”.

B2: IL-10: factor that induces PSC activation/trans-differentiation (protein, UniProt P22301 19-178, looked up)
Interleukin-10: SPGQGTQSENSCTHFPGNLPNMLRDLRDAFSRVKTFFQMKDQLDNLLLKESLLEDFKGYLGCQALSEMIQFYLEEVMPQAENQDPDIKAHVNSLGENLKTLRLRLRRCHRFLPCENKSKAVEQVKNAFNKLQEKGIYKAMSEFDIFINYIEAYMTMKIRN
In the case of B2, the “Effect on PSC” value [1] is listed as “increased type-1 collagen production”.

B3: CCK: factor that induces PSC activation/trans-differentiation (peptide, UniProt P06307 21-115, looked up)
Cholecystokinin: QPVPPADPAGSGLQRAEEAPRRQLRVSQRTDGESRAHLGALLARYIQQARKAPSGRMSIVKNLQNLDPSHRISDRDYMGWMDFGRRSAEEYEYPS
modifications: Cholecystokinin
For B3, the “Effect on PSC” value ([1]; cell proliferation) is given as “decreased proliferation” and the “Effect on PSC” value ([1]; collagen synthesis) is given as “increased collagen synthesis,”.
